System: BalbC mice
Test: Inflammatory cell infiltration in BALF of OVA-sensitised mice
Type: in vivo, mouse
Conditions: nebulised 3 micromolar
Protocol: FIG. 14. The calcilytic NPS89636 reduces inflammatory cell infiltration detected in the bronchioalveolar lavage fluid (BALF) from mice sensitized with OVA. 24 hours following the OVA sensitisation and nebulisation protocol described in detail in FIG. 13 in the presence of NS89636 (3 micromolar) or vehicle (0.3% DMSO), mice were killed and the BALF was collected by lavage. Cells from BALF were counted the same day using a haematocytometer. For differential cell count, BALF was concentrated by centrifugation 10 times, 100 microliters of the final solution was applied to a Cytospin 3 Shandon cell smearing system. The slides then were submerged into 1.5% Leisman stain in methanol for 6 min, then briefly washed in water twice, allowed to dry overnight, and the cells counted using 100× oil immersion objective. Data are presented as mean±S.E.M. Significant differences between vehicle and calcilytic are indicated, p<0.05, n=11.
Effect of the Calcilytic NPS 89636 on Inflammatory Cell Infiltration in the BALF of OVA-Sensitised Mice and LPS-Treated Guinea Pigs.
For the asthma model, OVA-sensitized mice were killed by a lethal overdose of sodium pentobarbitone (Euthatal), then using a cannula 1 ml of PBS was instilled into the lungs via an incision in the trachea. […]

CCc1ccc(CC(C)(C)NCC(O)COc2cc(-c3ccc(C(=O)O)cc3)ccc2C#N)c(F)c1.Cl (stereo in doubt) [NPS89636, (S)-4′-cyano-3′-[3-[2-(4-ethyl-2-fluorophenyl)-1,1-dimethylethylamino]-2-hydroxy-propoxy]-biphenyl-4-carboxylic acid hydrochloride]
Effect on OVA-evoked inflammatory cell infiltration into the lung (BALF): reduced

— patent publication US9861606B2, “Therapeutic for treating inflammatory lung disorders” (University College Cardiff Consultants Limited, priority 2012, dated 2018)
